Source: PubChem BioAssay (NCI)
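48-hour exposure; five concentrations; linearly interpolated endpoints. Here, GI50 denotes the concentration required for 50% inhibition of growth. TGI marks complete inhibition of growth.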

Legend:
Test in all cases: NCI-60 cell line screen, 48 h
[1] = system: MALME-3M melanoma
[2] = system: HCC-2998 colon
[3] = system: DU-145 prostate
[4] = system: NCI-H226 lung
[5] = system: RXF 393 renal
[6] = system: SK-OV-3 ovarian
[7] = system: SK-MEL-2 melanoma
[8] = system: A498 renal
[9] = system: IGROV1 ovarian
[10] = system: UACC-62 melanoma
[11] = system: UO-31 renal
[12] = system: LOX IMVI melanoma
[13] = system: SF-268 CNS
[14] = system: KM12 colon
[15] = system: UACC-257 melanoma
[16] = system: SF-539 CNS
[17] = system: HOP-92 NSCLC
[18] = system: ACHN renal
[19] = system: MOLT-4 leukemia
[20] = system: SR leukemia
[21] = system: NCI-H460 lung
[22] = system: NCI/ADR-RES ovarian
[23] = system: HOP-62 NSCLC
[24] = system: SF-295 CNS
[25] = system: EKVX NSCLC
[26] = system: HL-60(TB) leukemia
[27] = system: OVCAR-4 ovarian
[28] = system: MCF7 breast
[29] = system: SNB-75 CNS
[30] = system: BT-549 breast
[31] = system: NCI-H522 lung
[32] = system: SN12C renal
[33] = system: PC-3 prostate
[34] = system: COLO 205 colon
[35] = system: SW-620 colon
[36] = system: SNB-19 CNS
[37] = system: SK-MEL-5 melanoma
[38] = system: CAKI-1 renal
[39] = system: MDA-MB-468 breast
[40] = system: HCT-15 colon
[41] = system: M14 melanoma
[42] = system: OVCAR-5 ovarian
[43] = system: HS 578T breast
[44] = system: SK-MEL-28 melanoma
[45] = system: T-47D breast
[46] = system: TK-10 renal
[47] = system: NCI-H23 lung
[48] = system: K-562 leukemia
[49] = system: MDA-MB-231 breast
[50] = system: RPMI-8226 leukemia
[51] = system: MDA-MB-435
[52] = system: A549 NSCLC
[53] = system: CCRF-CEM leukemia
[54] = system: OVCAR-3 ovarian
[55] = system: HT29 colon
[56] = system: OVCAR-8 ovarian
[57] = system: 786-0 renal

Compound: O=C(CSc1nnc(-c2ccc3nc(-c4ccc(Cl)cc4)[nH]c3c2)o1)Nc1ccc(Cl)cc1
- GI50 [1]: 1.86 µM
- TGI [1]: 4.07 µM
- GI50 [2]: 3.63 µM
- TGI [2]: 14.4 µM
- GI50 [3]: 2.53 µM
- TGI [3]: 6.35 µM
- GI50 [4]: 1.72 µM
- TGI [4]: 4.33 µM
- GI50 [5]: 1.59 µM
- TGI [5]: 3.7 µM
- GI50 [6]: 3.89 µM
- TGI [6]: 14.1 µM
- GI50 [7]: 2.53 µM
- TGI [7]: 7.08 µM
- GI50 [8]: 12.3 µM
- TGI [8]: 26.4 µM
- GI50 [9]: 2.24 µM
- TGI [9]: 7.98 µM
- GI50 [10]: 1.56 µM
- TGI [10]: 3.37 µM
- GI50 [11]: 1.61 µM
- TGI [11]: 4.02 µM
- GI50 [12]: 1.54 µM
- TGI [12]: 2.88 µM
- GI50 [13]: 3.18 µM
- TGI [13]: 77.9 µM
- GI50 [14]: 2.78 µM
- TGI [14]: 27 µM
- GI50 [15]: 2.4 µM
- TGI [15]: 6.24 µM
- GI50 [16]: 1.55 µM
- TGI [16]: 2.9 µM
- GI50 [17]: 2.33 µM
- TGI [17]: 6.86 µM
- GI50 [18]: 1.51 µM
- TGI [18]: 3.19 µM
- GI50 [19]: 2.6 µM
- TGI [19]: > 100 µM
- GI50 [20]: 3.6 µM
- TGI [20]: > 100 µM
- GI50 [21]: 1.77 µM
- TGI [21]: 3.38 µM
- GI50 [22]: 2.55 µM
- TGI [22]: 6.92 µM
- GI50 [23]: 2.3 µM
- TGI [23]: 5.46 µM
- GI50 [24]: 1.64 µM
- TGI [24]: 3.14 µM
- GI50 [25]: 2.04 µM
- TGI [25]: 6.43 µM
- GI50 [26]: 2.43 µM
- TGI [26]: 7.59 µM
- GI50 [27]: 2.61 µM
- TGI [27]: 7.73 µM
- GI50 [28]: 1.76 µM
- TGI [28]: 4.08 µM
- GI50 [29]: 1.75 µM
- TGI [29]: 5.58 µM
- GI50 [30]: 2.33 µM
- TGI [30]: 5 µM
- GI50 [31]: 2.05 µM
- TGI [31]: 5.61 µM
- GI50 [32]: 1.69 µM
- TGI [32]: 3.19 µM
- GI50 [33]: 2.44 µM
- TGI [33]: 7.99 µM
- GI50 [34]: 3.52 µM
- TGI [34]: 28.5 µM
- GI50 [35]: 2.18 µM
- TGI [35]: 5.72 µM
- GI50 [36]: 2.04 µM
- TGI [36]: 4.52 µM
- GI50 [37]: 1.97 µM
- TGI [37]: 4.2 µM
- GI50 [38]: 1.62 µM
- TGI [38]: 3.79 µM
- GI50 [39]: 2.41 µM
- TGI [39]: 6.19 µM
- GI50 [40]: 1.37 µM
- TGI [40]: 3.18 µM
- GI50 [41]: 2.11 µM
- TGI [41]: 5.01 µM
- GI50 [42]: 8.68 µM
- TGI [42]: 23.9 µM
- GI50 [43]: 2.43 µM
- TGI [43]: 8.1 µM
- GI50 [44]: 1.94 µM
- TGI [44]: 4.22 µM
- GI50 [45]: 7.07 µM
- TGI [45]: 68.2 µM
- GI50 [46]: 10.3 µM
- TGI [46]: 26.5 µM
- GI50 [47]: 1.65 µM
- TGI [47]: 3.24 µM
- GI50 [48]: 2.89 µM
- TGI [48]: > 100 µM
- GI50 [49]: 1.66 µM
- TGI [49]: 3.11 µM

Compound: COc1ccc(C(=O)/C=C/c2cc3c(cc2Br)OCO3)cc1S(N)(=O)=O
- GI50 [1]: 11.6 µM
- TGI [1]: 27 µM
- GI50 [50]: 2.87 µM
- TGI [50]: 10.6 µM
- GI50 [2]: 5.39 µM
- TGI [2]: 24.2 µM
- GI50 [3]: 3.71 µM
- TGI [3]: 12.7 µM
- GI50 [4]: 2.8 µM
- TGI [4]: 10.9 µM
- GI50 [5]: 2.77 µM
- TGI [5]: 17.5 µM
- GI50 [6]: 14.4 µM
- TGI [6]: 34.1 µM
- GI50 [7]: 14.7 µM
- TGI [7]: 30.2 µM
- GI50 [8]: 15.2 µM
- TGI [8]: 28.8 µM
- GI50 [51]: 13.6 µM
- TGI [51]: 37.5 µM
- GI50 [9]: 2.8 µM
- TGI [9]: 12.7 µM
- GI50 [10]: 4.07 µM
- TGI [10]: 23.5 µM
- GI50 [11]: 2.64 µM
- TGI [11]: 12.8 µM
- GI50 [12]: 1.68 µM
- TGI [12]: 3.16 µM
- GI50 [13]: 5.33 µM
- TGI [13]: 29.9 µM
- GI50 [14]: 2.45 µM
- TGI [14]: 6 µM
- GI50 [15]: 14.9 µM
- TGI [15]: 42.7 µM
- GI50 [16]: 1.72 µM
- TGI [16]: 3.27 µM
- GI50 [17]: 5.46 µM
- TGI [17]: 23.5 µM
- GI50 [18]: 1.97 µM
- TGI [18]: 4.11 µM
- GI50 [19]: 2.3 µM
- TGI [19]: 7.68 µM
- GI50 [20]: 1.54 µM
- TGI [20]: 4.58 µM
- GI50 [21]: 3.95 µM
- TGI [21]: > 100 µM
- GI50 [22]: 2.3 µM
- TGI [22]: 6 µM
- GI50 [23]: 2.62 µM
- TGI [23]: > 100 µM
- GI50 [52]: 2.7 µM
- TGI [52]: 10.5 µM
- GI50 [24]: 6.21 µM
- TGI [24]: 25.4 µM
- GI50 [25]: 9.71 µM
- TGI [25]: 42.9 µM
- GI50 [27]: 3.72 µM
- TGI [27]: 32.3 µM
- GI50 [28]: 3.84 µM
- TGI [28]: 19.5 µM
- GI50 [30]: 5.99 µM
- TGI [30]: 49 µM
- GI50 [31]: 2.79 µM
- TGI [31]: 14.9 µM
- GI50 [32]: 2.05 µM
- TGI [32]: 5.32 µM
- GI50 [33]: 6.7 µM
- TGI [33]: 28.9 µM
- GI50 [34]: 5.39 µM
- TGI [34]: > 100 µM
- GI50 [36]: 5.77 µM
- TGI [36]: 29.7 µM
- GI50 [37]: 9.12 µM
- TGI [37]: 29.2 µM
- GI50 [53]: 6.67 µM
- TGI [53]: 38.1 µM
- GI50 [38]: 4.55 µM
- TGI [38]: 23.9 µM
- GI50 [39]: 4.98 µM
- TGI [39]: 24.8 µM
- GI50 [40]: 1.78 µM
- TGI [40]: 3.79 µM
- GI50 [54]: 2.55 µM
- TGI [54]: 6.62 µM
- GI50 [55]: 1.88 µM
- TGI [55]: 3.66 µM
- GI50 [41]: 9.16 µM
- TGI [41]: 25.5 µM
- GI50 [42]: 2.65 µM
- TGI [42]: 10.2 µM
- GI50 [43]: 20.8 µM
- TGI [43]: > 100 µM
- GI50 [56]: 2.91 µM
- TGI [56]: > 100 µM
- GI50 [57]: 3.68 µM
- TGI [57]: 15.4 µM
- GI50 [44]: 14.3 µM
- TGI [44]: 30.2 µM
- GI50 [45]: 5.99 µM
- TGI [45]: 33 µM
- GI50 [46]: 14.6 µM
- TGI [46]: 36.3 µM
- GI50 [47]: 4.24 µM
- TGI [47]: 28 µM
- GI50 [48]: 0.445 µM
- TGI [48]: 11.8 µM
- GI50 [49]: 2.87 µM
- TGI [49]: 8.68 µM
